Results from patent publication US11365196B2, “FGFR inhibitor and application thereof” (Betta Pharmaceuticals Co., Ltd., priority 2017, dated 2022).
Read-outs that look alike come from different tables or passages of the source.

How the values were obtained:
[1] = system: RT4 (human bladder cancer cell); test: Cell proliferation assay, CellTiter Glo (Table 9); type: cell-based; details: 96 hrs
Procedure: (§2) Test method: 100 μl of the cell suspension was added to a 96-well plate and placed in a CO2 incubator overnight. Test compounds were dissolved in DMSO and subjected to a 3-fold gradient dilution for a total of 10 concentrations. The test compound or DMSO was transferred to the corresponding cell wells respectively and was incubated for 96 hrs in 5% CO2 at 37° C. 100 μl of CellTiter-Glo reagent was added to the assay plate and incubated for 10 min at room temperature to stabilize the luminescence signal. The IC50 value was calculated by recording the RLU (relative luminescence unit) using Enspire.

[2] = system: SNU-16 (human gastric cancer cell); test: Cell proliferation assay, CellTiter Glo (Table 9); type: cell-based
Procedure: as §2

[3] = system: DMS 114 (human lung cancer cell); test: Cell proliferation assay, CellTiter Glo (Table 9); type: cell-based
Procedure: as §2

[4] = system: MDA-MB-453 (human breast cancer cell); test: Cell proliferation assay, CellTiter Glo (Table 9); type: cell-based
Procedure: as §2

[5] = system: MFE-296 (human endometrial cancer cells); test: Cell proliferation assay, CellTiter Glo (Table 9); type: cell-based; details: WIFE-296 [sic]
Procedure: as §2

[6] = system: RT-112 (human bladder cancer cell); test: Cell proliferation assay, CellTiter Glo (Table 9); type: cell-based
Procedure: as §2

NCI-H1581 cells = test: Cell proliferation assay on NCI-H1581 (Table 7); type: cell-based, human
From the text: (§1) Test method: adding the appropriate volume of whole medium and the cells was suspended.

[7] = system: OPM-2 (human myeloma cell); test: Cell proliferation assay, CellTiter Glo (Table 9); type: cell-based
Procedure: as §2

[8] = system: NCI-H716 (human colorectal cancer cell); test: Cell proliferation assay, CellTiter Glo (Table 9); type: cell-based
Procedure: as §2

[9] = system: JHH-7 (human hepatoma cell); test: Cell proliferation assay, CellTiter Glo (Table 9); type: cell-based
Procedure: as §2

[10] = system: NCI-H1581 (human non-small cell lung cancer cells); test: Cell proliferation assay, CellTiter Glo (Table 9); type: cell-based
Procedure: as §2

FGFR3 = FGFR3 (Homo sapiens (Human), UniProt P22607); test: Kinase assay Method 1, mobility shift assay; type: biochemical; details: ATP at Km, read-out: IC50(nM) value of compounds FGFR3
FGFR2 = FGFR2 (Homo sapiens (Human), UniProt P21802); test: Kinase assay Method 1, mobility shift assay; type: biochemical; details: ATP at Km, read-out: IC50(nM) value of compounds FGFR2
SNU-16 cells = test: Cell proliferation assay on SNU-16, CellTiter Glo (Table 8); type: cell-based, human; details: class symbols, read-out: IC50(nM) value of compounds on SNU-16 cells
From the text: as §1

FGFR4 = FGFR4 (Homo sapiens (Human), UniProt P22455); test: Kinase assay Method 1, mobility shift assay; type: biochemical; details: ATP at Km, numeric values, read-out: IC50(nM) value of compounds FGFR4
FGFR1 = FGFR1 (Homo sapiens (Human), UniProt P11362); test: Kinase assay Method 1, mobility shift assay; details: read-out: IC50(nM) value of compounds FGFR1; mobility shift assay, ATP at Km; class symbols
Procedure: Method 1: The inhibitory activity of some compounds of the present disclosure against FGFR1, FGFR2, FGFR3, FGFR4, KDR was tested by mobility shift assay (concentration of ATP is Km value).
Preparing of compounds: dilute test compounds to specific concentration using 100% DMSO

[11] = Homo sapiens, NCI-H1581, read-out: IC50(nM) value of compounds on NCI-H1581 cells
[12] = Homo sapiens, NCI-H1581, CellTiter 96 AQueous (144 hrs) or CellTiter Glo (96 hrs), class symbols, read-out: IC50(nM) value of compounds on NCI-H1581 cells

Chain of FGFR4 (P22455 22-802): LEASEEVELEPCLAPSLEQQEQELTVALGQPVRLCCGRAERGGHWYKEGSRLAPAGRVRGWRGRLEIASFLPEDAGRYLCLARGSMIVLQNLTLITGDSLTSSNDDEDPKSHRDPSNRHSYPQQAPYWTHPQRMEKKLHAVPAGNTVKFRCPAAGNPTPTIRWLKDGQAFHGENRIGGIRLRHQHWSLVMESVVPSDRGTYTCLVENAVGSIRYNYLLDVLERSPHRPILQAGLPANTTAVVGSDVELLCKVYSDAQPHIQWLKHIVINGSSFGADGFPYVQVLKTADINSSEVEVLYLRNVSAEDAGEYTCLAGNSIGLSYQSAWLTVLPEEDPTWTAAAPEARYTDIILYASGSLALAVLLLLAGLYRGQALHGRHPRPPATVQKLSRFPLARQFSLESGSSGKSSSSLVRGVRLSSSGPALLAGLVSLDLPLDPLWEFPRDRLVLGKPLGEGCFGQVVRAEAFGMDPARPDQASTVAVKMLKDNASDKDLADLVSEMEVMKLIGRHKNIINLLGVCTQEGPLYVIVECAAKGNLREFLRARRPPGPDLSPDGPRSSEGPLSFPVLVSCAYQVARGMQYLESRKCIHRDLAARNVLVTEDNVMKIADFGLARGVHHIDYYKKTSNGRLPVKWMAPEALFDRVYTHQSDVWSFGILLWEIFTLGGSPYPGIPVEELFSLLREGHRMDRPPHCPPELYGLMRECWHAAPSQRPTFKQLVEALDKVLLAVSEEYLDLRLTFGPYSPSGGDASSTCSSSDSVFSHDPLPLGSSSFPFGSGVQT
Chain of FGFR2 (P21802 22-821): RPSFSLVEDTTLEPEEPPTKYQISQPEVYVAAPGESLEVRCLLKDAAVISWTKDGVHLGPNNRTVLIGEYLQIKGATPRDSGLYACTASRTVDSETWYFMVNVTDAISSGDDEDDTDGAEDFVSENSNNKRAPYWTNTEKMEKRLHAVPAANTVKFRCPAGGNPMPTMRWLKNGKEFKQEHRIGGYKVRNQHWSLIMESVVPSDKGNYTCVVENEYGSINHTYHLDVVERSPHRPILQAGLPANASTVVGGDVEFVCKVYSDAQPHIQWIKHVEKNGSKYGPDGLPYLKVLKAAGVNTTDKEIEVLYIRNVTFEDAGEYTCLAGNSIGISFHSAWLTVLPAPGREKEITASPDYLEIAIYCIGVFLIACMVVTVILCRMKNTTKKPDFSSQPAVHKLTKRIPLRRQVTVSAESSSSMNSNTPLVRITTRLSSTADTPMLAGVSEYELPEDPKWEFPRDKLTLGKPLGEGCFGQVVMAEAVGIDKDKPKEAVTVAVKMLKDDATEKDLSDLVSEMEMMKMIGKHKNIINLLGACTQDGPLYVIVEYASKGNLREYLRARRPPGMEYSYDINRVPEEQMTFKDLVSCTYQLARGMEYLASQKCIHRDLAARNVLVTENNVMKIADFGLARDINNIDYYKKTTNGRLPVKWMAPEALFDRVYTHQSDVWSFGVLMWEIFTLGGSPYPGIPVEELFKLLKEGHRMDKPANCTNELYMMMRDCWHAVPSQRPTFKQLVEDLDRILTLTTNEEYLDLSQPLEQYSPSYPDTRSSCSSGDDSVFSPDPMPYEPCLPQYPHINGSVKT
Chain of FGFR3 (P22607 23-806): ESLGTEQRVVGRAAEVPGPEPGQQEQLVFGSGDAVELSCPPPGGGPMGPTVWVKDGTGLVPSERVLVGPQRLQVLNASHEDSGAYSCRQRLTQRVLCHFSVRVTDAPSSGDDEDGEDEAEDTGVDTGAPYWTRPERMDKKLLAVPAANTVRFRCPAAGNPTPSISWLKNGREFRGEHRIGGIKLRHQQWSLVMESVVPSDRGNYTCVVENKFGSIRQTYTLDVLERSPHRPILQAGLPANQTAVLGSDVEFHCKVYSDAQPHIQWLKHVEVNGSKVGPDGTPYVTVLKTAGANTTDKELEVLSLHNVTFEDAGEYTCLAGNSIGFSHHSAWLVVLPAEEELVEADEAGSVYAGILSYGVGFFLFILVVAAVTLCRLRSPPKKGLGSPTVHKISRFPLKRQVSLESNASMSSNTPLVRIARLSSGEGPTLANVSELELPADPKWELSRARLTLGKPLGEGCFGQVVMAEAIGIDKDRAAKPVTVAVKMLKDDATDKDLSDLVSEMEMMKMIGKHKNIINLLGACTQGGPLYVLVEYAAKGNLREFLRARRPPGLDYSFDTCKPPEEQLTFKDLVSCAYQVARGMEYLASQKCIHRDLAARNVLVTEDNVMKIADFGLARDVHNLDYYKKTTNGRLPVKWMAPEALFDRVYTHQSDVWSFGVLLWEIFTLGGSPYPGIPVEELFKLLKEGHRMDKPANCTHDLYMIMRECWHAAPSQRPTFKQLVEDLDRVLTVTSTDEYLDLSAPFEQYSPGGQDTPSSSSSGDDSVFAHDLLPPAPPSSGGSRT
Chain of FGFR1 (P11362 22-822): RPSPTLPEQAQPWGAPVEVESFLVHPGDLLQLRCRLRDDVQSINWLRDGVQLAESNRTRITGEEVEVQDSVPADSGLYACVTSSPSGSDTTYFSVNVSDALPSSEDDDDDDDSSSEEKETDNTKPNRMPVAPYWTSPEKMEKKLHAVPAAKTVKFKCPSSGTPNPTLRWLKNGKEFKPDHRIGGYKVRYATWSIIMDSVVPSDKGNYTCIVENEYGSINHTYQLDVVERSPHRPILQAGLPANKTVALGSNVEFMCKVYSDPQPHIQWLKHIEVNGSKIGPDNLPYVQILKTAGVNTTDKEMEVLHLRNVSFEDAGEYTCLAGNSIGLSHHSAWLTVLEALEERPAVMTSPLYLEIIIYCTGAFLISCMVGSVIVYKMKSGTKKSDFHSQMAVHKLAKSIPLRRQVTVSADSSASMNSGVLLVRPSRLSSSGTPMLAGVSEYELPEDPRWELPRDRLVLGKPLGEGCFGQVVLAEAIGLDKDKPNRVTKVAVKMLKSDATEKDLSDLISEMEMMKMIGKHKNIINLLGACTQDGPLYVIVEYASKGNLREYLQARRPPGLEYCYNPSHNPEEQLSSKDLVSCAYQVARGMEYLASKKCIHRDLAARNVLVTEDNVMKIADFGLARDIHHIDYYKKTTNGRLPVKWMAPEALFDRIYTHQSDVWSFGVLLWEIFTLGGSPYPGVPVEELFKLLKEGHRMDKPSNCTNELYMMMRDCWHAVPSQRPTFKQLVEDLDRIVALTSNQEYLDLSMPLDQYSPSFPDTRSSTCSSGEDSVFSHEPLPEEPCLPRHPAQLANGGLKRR

Compound | IC50 (NCI-H1581 cells; [11]) [nM] | IC50 (SNU-16 cells; Homo sapiens, SNU-16, 96 hrs) [nM] | IC50 (FGFR4) [nM] | further results
CCN1CCN(c2ccc(Nc3cc(N(C)C(=O)Nc4c(Cl)c(OC)cc(OC)c4Cl)ncn3)cc2)CC1 [BGJ398, Infigratinib] |  |  |  | IC50 ([1]; Homo sapiens): 16.9 nM; IC50 ([2]; Homo sapiens, SNU-16, 96 hrs): 9.5 nM; IC50 ([3]; Homo sapiens, DMS-114, 96 hrs): 33.6 nM; IC50 ([4]; Homo sapiens, MDA-MB-453, 96 hrs): 544 nM; IC50 ([5]; Homo sapiens, MFE-296, 96 hrs): 51.4 nM; IC50 ([6]; Homo sapiens, RT-112, 96 hrs): 4.4 nM; IC50 (NCI-H1581 cells; Homo sapiens, NCI-H1581, CellTiter 96 AQueous (144 hrs) or CellTiter Glo (96 hrs), numeric values, read-out: IC50(nM) value of compounds on NCI-H1581 cells): 3.4 nM; IC50 ([7]; Homo sapiens, OPM-2, 96 hrs): 18 nM; IC50 ([8]; Homo sapiens, NCI-H716, 96 hrs): 4.6 nM; IC50 ([9]; Homo sapiens, JHH7, 96 hrs): 54.1 nM; IC50 ([10]; Homo sapiens, NCI-H1581, 96 hrs): 18.2 nM
COc1cc(OC)c(Cl)c(-c2cc3cnc(Nc4ccc(N5CCN6CCC[C@@H]6C5)cc4)nc3n3cnnc23)c1 [Compound 24, (R)-6-(2-chloro-3,5-dimethoxyphenyl)-N-(4-(hexahydropyrrolo[1,2-a]pyrazin-2(1H)-yl)phenyl)-[1,2,4]triazolo[4′,3′:1,6]pyrido[2,3-d]pyrimidin-2-amine] | 1.2 | < 1 | 26 | IC50 (FGFR3): 0.8 nM; IC50 (FGFR2): 1.8 nM
COc1cc(OC)c(Cl)c(-c2cc3cnc(Nc4ccc(N5CCC(N6CCOCC6)CC5)cc4)nc3n3cnnc23)c1 [Compound 29, 6-(2-chloro-3,5-dimethoxyphenyl)-N-(4-(4-morpholinopiperidin-1-yl)phenyl)-[1,2,4]triazolo[4′,3′:1,6]pyrido[2,3-d]pyrimidin-2-amine] | 2 | < 1 |  | 
COc1cc(OC)c(Cl)c(-c2cc3cnc(Nc4ccc(N5CCN6CCOC[C@@H]6C5)cc4)nc3n3cnnc23)c1 [Compound 42, (S)-6-(2-chloro-3,5-dimethoxyphenyl)-N-(4-(hexahydropyrazino[2,1-c][1,4]oxazin-8(1H)-yl)phenyl)-[1,2,4]triazolo[4′,3′:1,6]pyrido[2,3-d]pyrimidin-2-amine] | 3.2 | < 1 |  | IC50 (FGFR3): 1.6 nM; IC50 (FGFR2): 1.3 nM
COc1cc(OC)c(Cl)c(-c2cc3cnc(Nc4ccc(N5CCN6CCOC[C@H]6C5)cc4)nc3n3cnnc23)c1 [Compound 43, (R)-6-(2-chloro-3,5-dimethoxyphenyl)-N-(4-(hexahydropyrazino[2,1-c][1,4]oxazin-8(1H)-yl)phenyl)-[1,2,4]triazolo[4′,3′:1,6]pyrido[2,3-d]pyrimidin-2-amine] | 1 to 10 | < 1 |  | 
COc1cc(OC)c(Cl)c(-c2cc3cnc(Nc4ccc(N5C[C@@H](C)N[C@@H](C)C5)cc4)nc3n3cnnc23)c1 [Compound 50, 6-(2-chloro-3,5-dimethoxyphenyl)-N-(4-((3S,5R)-3,5-dimethylpiperazin-1-yl)phenyl)-[1,2,4]triazolo[4′,3′:1,6]pyrido[2,3-d]pyrimidin-2-amine] | 0.2 | < 1 | 35 | 
COc1cc(OC)c(Cl)c(-c2cc3cnc(Nc4ccc(N5C[C@@H](C)N[C@@H](C)C5)c(F)c4)nc3n3cnnc23)c1 [Compound 56, 6-(2-chloro-3,5-dimethoxyphenyl)-N-(4-((3S,5R)-3,5-dimethylpiperazin-1-yl)-3-fluorophenyl)-[1,2,4]triazolo[4′,3′:1,6]pyrido[2,3-d]pyrimidin-2-amine] | 1.2 |  | 51 | 
COc1cc(OC)c(Cl)c(-c2cc3cnc(Nc4ccc(N5CCN6CCC[C@@H]6C5)cc4)nc3n3cnnc23)c1Cl [Compound 64, (R)-6-(2,6-dichloro-3,5-dimethoxyphenyl)-N-(4-(hexahydropyrrolo[1,2-a]pyrazin-2(1H)-yl)phenyl)-[1,2,4]triazolo[4′,3′:1,6]pyrido[2,3-d]pyrimidin-2-amine] | 0.5 | < 1 | 14 | IC50 (FGFR3): 0.6 nM; IC50 (FGFR2): 2.7 nM
COc1cc(OC)c(Cl)c(-c2cc3cnc(Nc4ccc(N5CCC(N6CCOCC6)CC5)cc4)nc3n3cnnc23)c1Cl [Compound 65, 6-(2,6-dichloro-3,5-dimethoxyphenyl)-N-(4-(4-morpholinopiperidin-1-yl)phenyl)-[1,2,4]triazolo[4′,3′:1,6]pyrido[2,3-d]pyrimidin-2-amine] | 0.6 |  | 6.7 | 
CCN1CCN(c2ccc(Nc3ncc4cc(-c5cc6[nH]c(C)nc6cc5Cl)c5nncn5c4n3)cc2)CC1 [Compound 67, 6-(5-chloro-2-methyl-1H-benzo[d]imidazol-6-yl)-N-(4-(4-ethylpiperazin-1-yl)phenyl)-[1,2,4]triazolo[4′,3′:1,6]pyrido[2,3-d]pyrimidin-2-amine] | 1 to 10 |  | 90 | 
Cc1nc2cc(Cl)c(-c3cc4cnc(Nc5ccc(N6CCC(N(C)C)CC6)cc5)nc4n4cnnc34)cc2[nH]1 [Compound 78, 6-(5-chloro-2-methyl-1H-benzo[d]imidazol-6-yl)-N-(4-(4-(dimethylamino)piperidin-1-yl)phenyl)-[1,2,4]triazolo[4′,3′:1,6]pyrido[2,3-d]pyrimidin-2-amine] | 5.3 |  | 600 | 
Cc1nc2cc(Cl)c(-c3cc4cnc(Nc5ccc(N6CCOCC6)cc5)nc4n4cnnc34)cc2[nH]1 [Compound 81, 6-(5-chloro-2-methyl-1H-benzo[d]imidazol-6-yl)-N-(4-morpholinophenyl)-[1,2,4]triazolo[4′,3′:1,6]pyrido[2,3-d]pyrimidin-2-amine] | 9.3 |  | 191 | 
Cc1nc2cc(Cl)c(-c3cc4cnc(Nc5ccc(N6CCN7CCC[C@@H]7C6)cc5)nc4n4cnnc34)cc2[nH]1 [Compound 84] |  | 1 to 10 |  | IC50 (NCI-H1581 cells; [12]): 1 to 10 nM; IC50 (FGFR1): < 1 nM
CCN1CCC(c2ccc(Nc3ncc4cc(-c5cc(OC)cc(OC)c5Cl)c5nncn5c4n3)cc2)CC1 [Compound 102, 6-(2-chloro-3,5-dimethoxyphenyl)-N-(4-(1-ethylpiperidin-4-yl)phenyl)-[1,2,4]triazolo[4′,3′:1,6]pyrido[2,3-d]pyrimidin-2-amine] | 0.7 |  | 60 | 
COc1cc(OC)c(Cl)c(-c2cc3cnc(Nc4ccc(C5CCNCC5)cc4)nc3n3cnnc23)c1 [Compound 102-2] |  |  | 26 | IC50 (NCI-H1581 cells; read-out: IC50(nM) value of compounds on NCI-H1581 cells): 0.9 nM
CCN1CCN(Cc2ccc(Nc3ncc4cc(-c5cc(OC)cc(OC)c5Cl)c5nncn5c4n3)cn2)CC1 [Compound 111, 6-(2-chloro-3,5-dimethoxyphenyl)-N-(6-((4-ethylpiperazin-1-yl)methyl)pyridin-3-yl)-[1,2,4]triazolo[4′,3′:1,6]pyrido[2,3-d]pyrimidin-2-amine] | 8.2 |  | 288 | 
C=CC(=O)N1CCN(Cc2nc3c(-c4c(Cl)c(OC)cc(OC)c4Cl)cc4cnc(NC)nc4n3n2)CC1 [Compound 123, 1-(4-(2-(4-(2,6-dichloro-3,5-dimethoxyphenyl)-8-(methylamino)-[1,2,4]triazolo[1′,5′:1,6]pyrido[2,3-d]pyrimidin-2-yl)methyl)piperazin-1-yl)prop-2-en-1-one] | 5.8 |  | 730 | 
C=CC(=O)N1CCC2(CC1)CN(CCCc1nc3c(-c4c(Cl)c(OC)cc(OC)c4Cl)cc4cnc(NC)nc4n3n1)C2 [Compound 138, 1-(2-(3-(4-(2,6-dichloro-3,5-dimethoxyphenyl)-8-(methylamino)-[1,2,4]triazolo[1′,5′:1,6]pyrido[2,3-d]pyrimidin-2-yl)propyl)-2,7-diazaspiro[3.5]nonan-7-yl)prop-2-en-1-one] |  | 1 to 10 |  | 
CNc1ncc2cc(-c3c(Cl)c(OC)cc(OC)c3Cl)c3nc(CCCN4CCN(C(=O)C(C#N)=CC(C)C)CC4)nn3c2n1 [Compound 147, 2-(4-(3-(4-(2,6-dichloro-3,5-dimethoxyphenyl)-8-(methylamino)-[1,2,4]triazolo[1′,5′:1,6]pyrido[2,3-d]pyrimidin-2-yl)propyl)piperazine-1-carbonyl)-4-methylpent-2-enenitrile] |  | 10 to 100 |  | IC50 (NCI-H1581 cells; [12]): 10 to 100 nM
COc1cc(OC)cc(N(CCNC(C)C)c2ccc3ncc(-c4cnn(C)c4)nc3c2)c1 [JNJ42756493] |  |  |  | IC50 [1]: 2.4 nM; IC50 ([2]; 96 hrs): 1.2 nM; IC50 ([3]; 96 hrs): 14.8 nM; IC50 ([4]; 96 hrs): 11 nM; IC50 ([5]; 96 hrs): 16.7 nM; IC50 ([6]; 96 hrs): 0.8 nM; IC50 (NCI-H1581 cells; CellTiter 96 AQueous (144 hrs) or CellTiter Glo (96 hrs), numeric values, read-out: IC50(nM) value of compounds on NCI-H1581 cells): 0.5 nM; IC50 ([7]; 96 hrs): 2.5 nM; IC50 ([8]; 96 hrs): 0.6 nM; IC50 (SNU-16 cells; 96 hrs): < 1 nM; IC50 ([9]; 96 hrs): 3.8 nM; IC50 ([10]; 96 hrs): 1.5 nM
